# Data reported in PubChem BioAssay (NCI).
#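 Values below derive from 48-hour exposures of cells grown in 96-well plates, with endpoints linearly interpolated between the two concentrations bracketing the appropriate inhibition level. GI50 marks 50% less growth. TGI: total growth inhibition.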
# Legend:
# Experiment in all cases: NCI-60 cell line screen, 48 h
# [1] = tested on: NCI-H226 lung
# [2] = tested on: SW-620 colon
# [3] = tested on: MDA-MB-435
# [4] = tested on: OVCAR-3 ovarian
# [5] = tested on: OVCAR-8 ovarian
# [6] = tested on: PC-3 prostate
# [7] = tested on: HOP-92 NSCLC
# [8] = tested on: ACHN renal
# [9] = tested on: NCI/ADR-RES ovarian
# [10] = tested on: TK-10 renal
# [11] = tested on: SF-539 CNS
# [12] = tested on: T-47D breast
# [13] = tested on: UO-31 renal
# [14] = tested on: RPMI-8226 leukemia
# [15] = tested on: SNB-75 CNS
# [16] = tested on: K-562 leukemia
# [17] = tested on: MDA-MB-231 breast
# [18] = tested on: OVCAR-5 ovarian
# [19] = tested on: M14 melanoma
# [20] = tested on: CAKI-1 renal
# [21] = tested on: HCC-2998 colon
# [22] = tested on: HL-60(TB) leukemia
# [23] = tested on: SF-295 CNS
# [24] = tested on: BT-549 breast
# [25] = tested on: NCI-H522 lung
# [26] = tested on: HS 578T breast
# [27] = tested on: OVCAR-4 ovarian
# [28] = tested on: KM12 colon
# [29] = tested on: MCF7 breast
# [30] = tested on: SN12C renal
# [31] = tested on: RXF 393 renal
# [32] = tested on: COLO 205 colon
# [33] = tested on: SK-MEL-5 melanoma
# [34] = tested on: NCI-H460 lung
# [35] = tested on: EKVX NSCLC
# [36] = tested on: IGROV1 ovarian
# [37] = tested on: SK-MEL-2 melanoma
# [38] = tested on: HOP-62 NSCLC
# [39] = tested on: SF-268 CNS
# [40] = tested on: SK-MEL-28 melanoma
# [41] = tested on: UACC-62 melanoma
# [42] = tested on: NCI-H23 lung
# [43] = tested on: UACC-257 melanoma
# [44] = tested on: SNB-19 CNS
# [45] = tested on: HCT-116 colon
# [46] = tested on: A498 renal
# [47] = tested on: LOX IMVI melanoma
# [48] = tested on: A549 NSCLC
# [49] = tested on: MOLT-4 leukemia
# [50] = tested on: SR leukemia
# [51] = tested on: CCRF-CEM leukemia
# [52] = tested on: DU-145 prostate
# [53] = tested on: 786-0 renal
# [54] = tested on: SK-OV-3 ovarian
compound,measurement,setting,value
Nc1nc(/C=C\c2ccc([N+](=O)[O-])s2)nc(N2CCOCC2)n1,GI50,[1],16 µM
same,TGI,[1],46.2 µM
same,GI50,[2],13.9 µM
same,TGI,[2],> 100 µM
same,GI50,[3],8.19 µM
same,TGI,[3],22.8 µM
same,GI50,[4],15.2 µM
same,TGI,[4],37.5 µM
same,GI50,[5],13.7 µM
same,TGI,[5],> 100 µM
same,GI50,[6],11.5 µM
same,TGI,[6],28.1 µM
same,GI50,[7],13.2 µM
same,TGI,[7],28.1 µM
same,GI50,[8],5.06 µM
same,TGI,[8],17.7 µM
same,GI50,[9],12.7 µM
same,TGI,[9],33.3 µM
same,GI50,[10],22 µM
same,TGI,[10],46.9 µM
same,GI50,[11],19.7 µM
same,TGI,[11],46.3 µM
same,GI50,[12],8.98 µM
same,TGI,[12],28.1 µM
same,GI50,[13],14.9 µM
same,TGI,[13],30.1 µM
same,GI50,[14],3.45 µM
same,TGI,[14],17.6 µM
same,GI50,[15],13.8 µM
same,TGI,[15],34.2 µM
same,GI50,[16],7.71 µM
same,TGI,[16],24.7 µM
same,GI50,[17],5.55 µM
same,TGI,[17],19.1 µM
same,GI50,[18],22.2 µM
same,TGI,[18],37.2 µM
same,GI50,[19],10.5 µM
same,TGI,[19],24.7 µM
same,GI50,[20],19.7 µM
same,TGI,[20],39.6 µM
same,GI50,[21],5.18 µM
same,TGI,[21],16.7 µM
same,GI50,[22],6.45 µM
same,TGI,[22],26.2 µM
same,GI50,[23],36.4 µM
same,TGI,[23],> 100 µM
same,GI50,[24],9.29 µM
same,TGI,[24],26.9 µM
same,GI50,[25],4.57 µM
same,TGI,[25],17.1 µM
same,GI50,[26],25.6 µM
same,TGI,[26],> 100 µM
same,GI50,[27],2.65 µM
same,TGI,[27],15.3 µM
same,GI50,[28],3.5 µM
same,TGI,[28],16.5 µM
same,GI50,[29],5.77 µM
same,TGI,[29],19.5 µM
same,GI50,[30],13 µM
same,TGI,[30],26.4 µM
same,GI50,[31],11.1 µM
same,TGI,[31],26.2 µM
same,GI50,[32],2.08 µM
same,TGI,[32],5.09 µM
same,GI50,[33],5.84 µM
same,TGI,[33],19.1 µM
same,GI50,[34],13.7 µM
same,TGI,[34],26.6 µM
same,GI50,[35],17.8 µM
same,TGI,[35],56.8 µM
same,GI50,[36],4.93 µM
same,TGI,[36],19.8 µM
same,GI50,[37],17.4 µM
same,TGI,[37],44.7 µM
same,GI50,[38],17.8 µM
same,TGI,[38],32.9 µM
same,GI50,[39],8.24 µM
same,TGI,[39],22 µM
same,GI50,[40],17.9 µM
same,TGI,[40],38.2 µM
same,GI50,[41],7.08 µM
same,TGI,[41],19.7 µM
same,GI50,[42],10.2 µM
same,TGI,[42],22.7 µM
same,GI50,[43],10.7 µM
same,TGI,[43],23.1 µM
same,GI50,[44],23.3 µM
same,TGI,[44],69.5 µM
same,GI50,[45],2.98 µM
same,TGI,[45],10.9 µM
same,GI50,[46],9 µM
same,TGI,[46],22.7 µM
same,GI50,[47],2.12 µM
same,TGI,[47],9.52 µM
same,GI50,[48],16.1 µM
same,TGI,[48],32.6 µM
same,GI50,[49],11.1 µM
same,TGI,[49],42.1 µM
same,GI50,[50],5.14 µM
same,TGI,[50],20.3 µM
same,GI50,[51],3.33 µM
same,TGI,[51],16.9 µM
same,GI50,[52],11 µM
same,TGI,[52],26.7 µM
same,GI50,[53],15.8 µM
same,TGI,[53],30.1 µM
same,GI50,[54],16.3 µM
same,TGI,[54],43 µM
